Reference: US11052154B2, “Ras protein degradation inducing molecule and pharmaceutical composition” (Tokyo University of Science Foundation, priority 2016, dated 2021)

Legend:
[1] = system: HeLa cells; experiment: Apoptosis induction in HeLa cells, FACS analysis (Annexin V/PI); type: cell-based, human; settings: HeLa cells expressing wild-type K-Ras, 24 hours after addition; FIGS. 6A, 7A
Protocol: In Example 7, apoptosis induction in a case where TUS-007, Ras-SOS, or Ras-SOS-NH2 was added to HeLa cells or SW1990 cells (human pancreatic cancer cells) had been added was evaluated by the FACS analysis. It is noted that in HeLa cells, the wild-type K-Ras protein (K-Ras-WT) is expressed, and in SW1990 cells, the G12D mutant K-Ras protein (K-Ras-G12D) is expressed.
HeLa cells or SW1990 cells were seeded in a 24-well plate at a cell density of 8×10^4 cells/well, and then cultured under conditions of 37° C. and 5 vol % CO2 for 16 hours.
After 16 hours from cell seeding, TUS-007, Ras-SOS, or Ras-SOS-NH2 were added to HeLa cells or SW1990 cells as follows. As a medium, a serum-free medium (37° C.) in which 1 mass % L-glutamine solution (Sigma-Aldrich) was added to D-MEM (high D-glucose, phenol red, sodium pyruvate (Wako Pure Chemical Industries, Ltd.)) was used. It is noted that the L-glutamine solution was added immediately before use. A DMSO solution containing TUS-007, Ras-SOS, or Ras-SOS-NH2 was mixed with the medium so that the concentration of DMSO was 1 vol %, and added to each well at 500 μL/well, and cultured under conditions of 37° C. and 5 vol % CO2. As a control, DMSO was used.
The medium was removed 24 hours after addition of TUS-007, Ras-SOS, or Ras-SOS-NH2, and then PBS was added to wash the cells. After removing PBS, trypsin (0.25 w/v % trypsin-1 mmol/L EDTA⋅4 Na solution with phenol red) (Wako Pure Chemical Industries, Ltd.) at 37° C. was added to each well at 200 μL/well, and cultured under conditions of 37° C. and 5 vol % CO2 for 1 minute. […]
A BD FACSCanto™ II (BD Biosciences) was used for flow cytometry. […] The proportion of Annexin V-positive and PI-negative cells was calculated using an analysis software FlowJo™ (TOMY Digital Biology Co., Ltd.), and the proportion was defined as a proportion of apoptosis cells.
In Example 8, apoptosis induction in a case where TUS-007, Ras-SOS-NH2, or erlotinib as an anticancer agent (EGFR inhibitor) was added to HeLa cells or SW1990 cells was evaluated by FACS analysis as in Example 7.

[2] = Body weight change and general condition of mice with subcutaneously implanted SW1990 cells; type: in vivo, mouse; settings: oral 80 mg/kg once every 3 days, 7 doses
Protocol: To the subcutis of T-cell deficient mice (BALB/cAJcl-nu/nu, 4 weeks old, female) (CLEA Japan, Inc.), 0.1 mL of cell suspension in which SW1990 cells were suspended in PBS so as to be 1×10^7 cells/mL was implanted using a 26-gauge injection needle (TERUMO CORPORATION).
Immediately before administration, TUS-007 was dissolved in DMSO, 0.5 mass % carboxymethyl cellulose (Code No. 039-01335, Wako Pure Chemical Industries, Ltd.) solution was added so that the concentration of DMSO became 2.5 vol %, followed by pulverization by ultrasonic treatment to prepare a suspension of TUS-007. When the tumors of mice with subcutaneously implanted SW1990 cells grew to a size of approximately 100 mm^3, the prepared TUS-007 suspension was orally administered by gavage with a gastric tube (Code No. 5202K, Fuchigami Kikai) at a dose of 80 mg/kg body weight once every 3 days for a total of 7 doses (n=6 to 9). As a control (Vehicle), 0.5 mass % carboxymethyl cellulose solution containing 2.5 vol % DMSO was administered in the same manner.

CCC(C)[C@H](NC(=O)CCCCCCNC(=O)[C@H](CC(C)C)NC(=O)CNC(=O)c1cc(Cl)ccc1Cl)C(=O)Nc1ccc2[nH]c(Cc3c[nH]c4ccccc34)nc2c1 (stereo in doubt) [TUS-007]
apoptosis induction (proportion of Annexin V-positive and PI-negative cells) [1]: apoptosis was induced in a concentration-dependent manner
general condition of the mice [2]: no abnormality in the general condition of the mice
body weight changes ([2]; vs Vehicle, FIG. 9B): no significant differences in body weight changes
